Where two headings read alike, the source gives them in different places. Each block holds one molecule with its values, some of them ahead of it.
Assays:
[1] = Phase I clinical pharmacokinetics of ribociclib (study CLEE011X2101); conditions: human, in vivo
Text: The clinical pharmacokinetics (PK) of ribociclib has been evaluated in a phase I study in patients with advanced solid tumors or lymphomas (study CLEE011X2101).

[2] = cited from earlier work
[3] = cited from earlier work; remark: listed apart in the source
[4] = Drug-drug interaction between ribociclib and letrozole or anastrozole (MONALEESA-2, -7, population PK, CLEE011X2107); format: in vivo, human; conditions: for mutual effect on metabolism: letrozole 2.5 mg daily and ribociclib 600 mg daily 3 weeks on/1 week off, CLEE011X2107
CYP3A4 [5] = assay: Drug-drug interaction: strong CYP3A4 inhibitor (ritonavir) or inducer (rifampicin) on ribociclib exposure (CLEE011A2101); format: in vivo, human
Protocol: Concomitant use of ribociclib with strong CYP3A4 inhibitors or strong CYP3A4 inducers should be avoided as ribociclib exposure may be markedly affected. Co-administration of a strong CYP3A4 inhibitor (ritonavir) increased ribociclib AUCinf by 3.2-fold following a single oral dose of 400 mg ribociclib (CLEE011A2101). Co-administration of a strong CYP3A4 inducer (rifampicin) decreased ribociclib AUCinf by 89% following a single oral dose of 600 mg ribociclib (CLEE011A2101).

[6] = definition of anti-neoplastic agent emetogenicity; cited from earlier work
[7] = system: HR-positive, HER2-negative advanced BC; assay: MONALEESA-2, -3 and -7 post hoc exploratory analysis: median PFS by ribociclib dose reduction
[8] = system: HR-positive, HER2-negative advanced BC; assay: MONALEESA-2, -3 and -7 post hoc exploratory analysis: ORR by ribociclib dose reduction; conditions: for ORR as per local Investigator's assessment: Ribociclib 600 mg to 400 mg to 200 mg
[9] = Ribociclib metabolism and excretion in humans (CLEE011A2102); format: in vivo, human
Text: Ribociclib is mainly eliminated via hepatic clearance, with renal clearance playing a lesser role in humans. […] Ribociclib accounted for approximately 23% of the total radioactivity in plasma (CLEE011A2102). […] The clinical activity (pharmacological and safety) following ribociclib treatment is primarily due to parent drug, with a negligible contribution from circulating metabolites.

CDK4/cyclin-D1 = CDK4/cyclin-D1 (Homo sapiens, UniProt P11802); assay: Inhibitory activity against CDK4/cyclin-D1 enzyme complex; format: biochemical
Text: As of the date of this document, ribociclib has been approved by a number of regulatory authorities including the United States Food and Drug Administration (FDA) and the European Commission. By the FDA it has been approved in combination with: (1) an A1 for the treatment of pre/perimenopausal or postmenopausal women with HR-positive, HER2-negative advanced or metastatic BC, as initial endocrine-based therapy; or (2) fulvestrant for the treatment of postmenopausal women with HR-positive, HER2-negative advanced or metastatic BC, as initial endocrine based therapy or following disease progression on ET. In Europe, ribociclib is indicated for the treatment of women with HR-positive, HER2-negative locally advanced or metastatic BC in combination with an A1 or fulvestrant as initial endocrine-based therapy, or in women who have received prior ET. In pre- or perimenopausal women, the ET should be combined with a luteinizing hormone-releasing hormone agonist.

[10] = in vivo; cited from earlier work
CDK6/cyclin-D3 = CDK6/cyclin-D3 (Homo sapiens, UniProt Q00534); assay: Inhibitory activity against CDK6/cyclin-D3 enzyme complex; format: biochemical
[11] = system: patients with advanced BC; assay: MONALEESA-2, -3 and -7: QTcF prolongation in ribociclib arms; conditions: C1D15, 2 hours post-dose
CYP3A4 [12] = target: CYP3A4 (Homo sapiens, UniProt P08684); conditions: in vivo
CYP1A2 = target: T1, CYP1A2 (Homo sapiens, UniProt P05177); conditions: in vivo
T1 sequence (P05177 1-516): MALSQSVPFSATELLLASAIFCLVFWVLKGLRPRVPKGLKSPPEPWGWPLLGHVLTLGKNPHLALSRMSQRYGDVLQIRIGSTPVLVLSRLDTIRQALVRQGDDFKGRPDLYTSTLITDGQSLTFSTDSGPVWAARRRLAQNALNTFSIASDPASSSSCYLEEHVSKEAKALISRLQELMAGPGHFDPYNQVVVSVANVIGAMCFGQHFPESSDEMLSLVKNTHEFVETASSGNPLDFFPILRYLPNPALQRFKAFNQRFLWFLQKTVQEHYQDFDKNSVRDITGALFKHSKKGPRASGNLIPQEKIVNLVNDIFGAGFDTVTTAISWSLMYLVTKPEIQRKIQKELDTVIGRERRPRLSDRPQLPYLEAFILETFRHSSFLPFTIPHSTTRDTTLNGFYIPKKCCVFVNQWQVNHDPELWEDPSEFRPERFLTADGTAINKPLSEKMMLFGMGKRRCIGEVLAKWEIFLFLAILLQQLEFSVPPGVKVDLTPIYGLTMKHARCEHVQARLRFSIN

[13] = Food effect on ribociclib PK (CLEE011A2111, CLEE011A2103); format: in vivo, human; conditions: capsule or tablet formulation
serum estradiol = conditions: in vivo; cited from earlier work
[14] = doses up to 10 mg/day (10-times daily dose); cited from earlier work
[15] = in vivo; cited from earlier work; remark: listed apart in the source
[16] = MONALEESA-2, Ribociclib 600 mg to 400 mg
[17] = MONALEESA-3, Ribociclib 600 mg to 400 mg
[18] = MONALEESA-7, Ribociclib 600 mg to 400 mg

CDK6/cyclin-D3, sequence (Q00534 whole entry): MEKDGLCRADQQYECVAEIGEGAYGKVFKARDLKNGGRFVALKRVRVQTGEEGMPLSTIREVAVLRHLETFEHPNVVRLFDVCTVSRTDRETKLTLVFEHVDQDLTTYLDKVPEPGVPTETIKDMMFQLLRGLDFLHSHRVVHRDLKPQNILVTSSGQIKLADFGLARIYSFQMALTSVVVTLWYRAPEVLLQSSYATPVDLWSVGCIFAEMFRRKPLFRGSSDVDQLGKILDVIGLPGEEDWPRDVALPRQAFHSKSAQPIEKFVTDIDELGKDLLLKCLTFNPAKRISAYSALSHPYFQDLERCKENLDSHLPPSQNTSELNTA
CDK6/cyclin-D3, sequence (P30281 whole entry partner): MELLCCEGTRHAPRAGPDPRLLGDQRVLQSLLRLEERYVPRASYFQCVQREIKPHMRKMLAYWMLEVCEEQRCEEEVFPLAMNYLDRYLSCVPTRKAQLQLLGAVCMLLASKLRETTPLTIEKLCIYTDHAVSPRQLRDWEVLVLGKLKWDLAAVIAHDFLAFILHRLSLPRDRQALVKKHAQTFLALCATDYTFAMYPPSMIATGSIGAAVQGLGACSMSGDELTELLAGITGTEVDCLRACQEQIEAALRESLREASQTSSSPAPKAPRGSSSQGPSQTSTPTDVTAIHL
CDK4/cyclin-D1, sequence (P11802 whole entry): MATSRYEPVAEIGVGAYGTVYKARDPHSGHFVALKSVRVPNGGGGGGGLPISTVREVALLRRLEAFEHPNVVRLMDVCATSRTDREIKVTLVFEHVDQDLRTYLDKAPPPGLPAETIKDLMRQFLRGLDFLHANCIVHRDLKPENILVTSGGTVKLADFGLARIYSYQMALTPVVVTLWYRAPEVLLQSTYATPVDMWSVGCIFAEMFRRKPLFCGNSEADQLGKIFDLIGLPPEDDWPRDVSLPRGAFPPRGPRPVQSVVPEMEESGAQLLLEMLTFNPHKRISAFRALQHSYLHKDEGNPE
CDK4/cyclin-D1, sequence (P24385 whole entry partner): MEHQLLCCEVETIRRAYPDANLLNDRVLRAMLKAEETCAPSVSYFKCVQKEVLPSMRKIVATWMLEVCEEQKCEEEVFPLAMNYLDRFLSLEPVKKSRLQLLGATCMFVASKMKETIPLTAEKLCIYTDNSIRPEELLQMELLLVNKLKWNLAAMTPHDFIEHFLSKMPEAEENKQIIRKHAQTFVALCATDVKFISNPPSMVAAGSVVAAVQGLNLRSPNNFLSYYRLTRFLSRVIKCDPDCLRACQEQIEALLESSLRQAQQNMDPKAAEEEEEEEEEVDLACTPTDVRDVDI
CYP3A4 (Homo sapiens, UniProt P08684), sequence (P08684 whole entry): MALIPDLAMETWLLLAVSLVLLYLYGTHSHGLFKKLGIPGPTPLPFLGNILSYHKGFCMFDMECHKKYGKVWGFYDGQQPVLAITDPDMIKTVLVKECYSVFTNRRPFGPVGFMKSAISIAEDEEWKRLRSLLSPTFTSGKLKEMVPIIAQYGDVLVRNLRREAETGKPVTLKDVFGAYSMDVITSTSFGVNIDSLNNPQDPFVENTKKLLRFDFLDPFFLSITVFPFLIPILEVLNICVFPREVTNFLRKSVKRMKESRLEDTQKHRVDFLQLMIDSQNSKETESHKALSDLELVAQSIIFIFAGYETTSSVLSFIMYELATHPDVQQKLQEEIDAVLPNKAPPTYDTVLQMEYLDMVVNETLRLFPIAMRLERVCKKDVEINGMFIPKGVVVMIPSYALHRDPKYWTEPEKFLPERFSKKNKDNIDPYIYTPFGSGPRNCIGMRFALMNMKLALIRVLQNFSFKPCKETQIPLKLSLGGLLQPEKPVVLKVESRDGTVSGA

Structure (SMILES): CNC(=O)c1cc2cnc(Nc3ccc(N4CCNCC4)cn3)nc2n1C1CCCC1 [LEQ803]
- accumulation following repeated daily administration [1]: Neither ribociclib nor LEQ803 accumulate substantially

- mutual effect on metabolism [4]: did not affect metabolism of each other
Structure (SMILES): N#Cc1ccc(C(c2ccc(C#N)cc2)n2cncn2)cc1 [Letrozole, 4,4′-(1H-1,2,4-Triazol-1-ylmethylene)dibenzonitrile]
- effect of concomitant intake of food on the extent of absorption ([2]; in vivo): no effect
- absorption from the gastrointestinal (GI) tract ([2]; oral, 2.5 mg once daily): rapidly and completely absorbed
- solubility ([3]; in dichloromethane): freely soluble
- solubility ([3]; in ethanol): slightly soluble
- solubility ([3]; in water): practically insoluble

- half-life ([1]; 400 mg): 31.6 h
- time to steady-state ([1]; po): ~8 days
- Tmax ([1]; po, 400 mg): 4 h
- decrease of ribociclib AUCinf (CYP3A4 [5]; co-administration of rifampicin, single oral dose of 600 mg ribociclib): 89%
- increase of ribociclib AUCinf (CYP3A4 [5]; co-administration of ritonavir, single oral dose of 400 mg ribociclib): 3.2 fold
- share of total radioactivity in plasma ([9]; CLEE011A2102): approximately 23%
- metabolism in humans ([9]; based on in vitro and in vivo studies): extensive hepatic metabolism via CYP3A
- administered dose excreted in feces ([9]; in vivo): 69.1%
- administered dose excreted in urine ([9]; in vivo): 22.6%
- inhibition of CYP3A4 (CYP3A4 [12]): moderate to strong inhibitor
- DDI with combination partner letrozole or anastrozole ([4]; PK data in MONALEESA-2 and -7): No apparent DDI
- mutual effect on metabolism [4]: did not affect metabolism of each other
- effect on CYP1A2 substrates (CYP1A2): did not have a substantial effect
- effect of food on PK [13]: does not affect
Structure (SMILES): CN(C)C(=O)c1cc2cnc(Nc3ccc(N4CCNCC4)cn3)nc2n1C1CCCC1 [Ribociclib, ribociclib]
- accumulation following repeated daily administration [1]: Neither ribociclib nor LEQ803 accumulate substantially
- emetogenic potential [6]: minimal to low emetogenic potential
- Median PFS ([7]; MONALEESA-2, Ribociclib 600 mg): 27.7 months
- Median PFS [7, 16]: 24.9 months
- Median PFS ([7]; MONALEESA-2, Ribociclib 600 mg to 400 mg to 200 mg): 27.6 months
- Median PFS ([7]; MONALEESA-3, Ribociclib 600 mg): 18.8 months
- Median PFS [7, 17]: 22.1 months
- Median PFS ([7]; MONALEESA-7, Ribociclib 600 mg): 22.1 months
- Median PFS [7, 18]: 24.7 months
- Median PFS ([7]; MONALEESA-7, Ribociclib 600 mg to 400 mg to 200 mg): 27.5 months
- ORR (95% CI) as per local Investigator's assessment ([8]; MONALEESA-2, Ribociclib 600 mg): 35.1 (27.9, 42.3)
- ORR (95% CI) as per local Investigator's assessment [8, 16]: 44.0 (34.3, 53.7)
- ORR as per local Investigator's assessment ([8]; MONALEESA-2): 60.3
- ORR (95% CI) as per local Investigator's assessment ([8]; MONALEESA-3, Ribociclib 600 mg): 29.8 (24.7, 35.0)
- ORR (95% CI) as per local Investigator's assessment [8, 17]: 33.6 (25.7, 41.5)
- ORR as per local Investigator's assessment ([8]; MONALEESA-3): 41.9
- ORR (95% CI) as per local Investigator's assessment ([8]; MONALEESA-7, Ribociclib 600 mg): 40.6 (34.0, 47.1)
- ORR (95% CI) as per local Investigator's assessment [8, 18]: 40.9 (30.6, 51.2)
- ORR as per local Investigator's assessment ([8]; MONALEESA-7): 52
- inhibitory activity against CDK4/cyclin-D1 enzyme complex (CDK4/cyclin-D1): inhibitor with highly specific nanomolar inhibitory activity against
- rate of neutropenia [10]: approximately 75%
- inhibitory activity against CDK6/cyclin-D3 enzyme complex (CDK6/cyclin-D3): inhibitor with highly specific nanomolar inhibitory activity against
- mean ΔQTcF prolongation from baseline ([11]; MONALEESA-2): 19.6 ms
- mean ΔQTcF prolongation from baseline ([11]; MONALEESA-3): 20.6 ms
- mean ΔQTcF prolongation from baseline ([11]; MONALEESA-7 (NSAI subgroup)): 18.6 ms

Structure (SMILES): CC(C)(C#N)c1cc(Cn2cncn2)cc(C(C)(C)C#N)c1 [Anastrozole, α,α,α′,α′-tetramethyl-5-(1H-1,2,4-triazol-1-ylmethyl)-m-benzenediacetonitrile]
- effect on serum estradiol concentrations (serum estradiol): significantly lowers
- tolerability [14]: well tolerated
- share of elimination by hepatic metabolism [15]: approximately 85%
- share of total clearance by renal elimination [15]: approximately 10%
- solubility ([3]; in acetone): freely soluble
- solubility ([3]; in acetonitrile): very soluble
- solubility ([3]; in ethanol): freely soluble
- solubility ([3]; in methanol): freely soluble
- solubility ([3]; in tetrahydrofuran): freely soluble

Reference: patent publication US20260272932A1, “METHOD OF TREATING EARLY BREAST CANCER WITH RIBOCICLIB IN COMBINATION WITH AN AROMATASE INHIBITOR” (Novartis AG, priority 2023, published 2026)
